# From patent US9868954B2, “Reduction of TGFβ signaling in myeloid cells in the treatment of cancer” (The United States of America, as represented by the …, priority 2011, dated 2018)
# Tested on: Gr-1+CD11b+ myeloid cells from Tgfbr2^myeKO
# Experiment: Expression of IL-10, IL-4 and PF4 (Western blotting, quantitative PCR) in sorted Gr-1+CD11b+ myeloid cells cultured with pathway inhibitors
# Type: cell-based, mice
# Conditions: myeloid cells lacking Tgfbr2, cultured 6 hours with inhibitor; mRNA level and protein level
# Experimental: Gr-1+CD11b+ myeloid cells were sorted with MACS from Tgfbr2^myeKO and cultured for 6 hours with an inhibitor of GSK3 (SB216763, Sigma) or PI3K (LY294002, Calbiochem) at different doses (2, 5, and 10 μM for the GSK3 inhibitor; 5, 10, and 20 μM for the PI3K inhibitor). SB216763 is a potent and selective ATP-competitive inhibitor of the serine/threonine protein kinas GSK α and β. […] GSK3 Western blotting was performed to detect inhibiting activity. The expression of IL-10, IL-4, and PF4 was examined using Western blotting and quantitative PCR.
row,Compound,"expression of IL-10, IL-4, and PF4"
1,Cc1ccc2nc(NCCN)c3ncc(C)n3c2c1 [BMS-345541],did not show a significant effect
2,Cn1cc(C2=C(c3ccc(Cl)cc3Cl)C(=O)NC2=O)c2ccccc21 [SB216763],"reversed the down-regulation of IL-10, IL-4, and PF4"
